Measurements taken from ChEMBL document CHEMBL1201862, “PubChem BioAssay data set” (2004).
“And” between values parts separate entries of the source, which are not always exact repeats. Equal values may be shown once. The source made the active and inactive calls.

Experiments:
[1] = target: T1, Probable nicotinate-nucleotide adenylyltransferase (Staphylococcus aureus (strain N315), UniProt P65502); format: functional, Staphylococcus aureus subsp. aureus N315;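 as to IC50 Mean: confirmatory dose-response retesting of NadD inhibitor hits first found in an ultra-high-throughput screen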
[2] = target: T1, Probable nicotinate-nucleotide adenylyltransferase; format: functional, Staphylococcus aureus subsp. aureus N315; settings: read-out: IC50_Mean
[3] = target: Ion channel NompC (Danio rerio, UniProt Q7T1G6); experiment: Dose response cell-based high-throughput screening assay for agonists of the transient receptor potential channel N1 (TRPN1). [Related pubchem assays (depositor defined):AID1424, AID1448]; format: functional
[4] = target: T2, Mucolipin-3 (Homo sapiens, UniProt Q8TDD5); experiment: Fluorescence counterscreen assay for […] agonists: dose response cell-based high-throughput screening assay to identify agonists of the transient receptor potential channel ML3 (TRPML3). [Related pubchem assays: 1424, 1448 ]; format: functional
T2 sequence (Q8TDD5 whole entry): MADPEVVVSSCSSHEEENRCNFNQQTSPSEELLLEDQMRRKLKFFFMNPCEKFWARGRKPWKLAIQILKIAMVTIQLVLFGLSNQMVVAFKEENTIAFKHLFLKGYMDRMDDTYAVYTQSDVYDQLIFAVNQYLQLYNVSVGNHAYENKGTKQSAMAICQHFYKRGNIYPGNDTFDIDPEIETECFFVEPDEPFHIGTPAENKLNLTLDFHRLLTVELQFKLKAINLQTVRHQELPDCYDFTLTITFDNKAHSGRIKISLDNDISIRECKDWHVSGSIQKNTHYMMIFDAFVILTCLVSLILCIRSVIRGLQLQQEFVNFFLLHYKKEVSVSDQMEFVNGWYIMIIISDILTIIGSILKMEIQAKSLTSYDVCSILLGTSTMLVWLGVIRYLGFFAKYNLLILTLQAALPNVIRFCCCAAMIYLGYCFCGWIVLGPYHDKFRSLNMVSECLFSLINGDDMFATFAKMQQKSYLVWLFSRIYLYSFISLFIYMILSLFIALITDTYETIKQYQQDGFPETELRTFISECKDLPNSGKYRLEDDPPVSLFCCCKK

[5] = target: T3, Intestinal-type alkaline phosphatase (Homo sapiens, UniProt P09923); experiment: activation of human intestinal alkaline phosphatase – biochemical, luminescent, uHTS hits, set 2, dose response (AID 488817); format: functional;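 also: potency of activators that raise enzyme activity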
[6] = target: T4, Alkaline phosphatase, tissue-nonspecific isozyme (Homo sapiens, UniProt P05186); experiment: activation of tissue-nonspecific alkaline phosphatase – biochemical, TNAP isozyme, human IAP uHTS hits, selectivity assay for human IAP activator project, dose response (AID 488886); format: functional;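 also: potency of compounds raising TNAP activity as a selectivity check on IAP activators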
T4 sequence (P05186 whole entry): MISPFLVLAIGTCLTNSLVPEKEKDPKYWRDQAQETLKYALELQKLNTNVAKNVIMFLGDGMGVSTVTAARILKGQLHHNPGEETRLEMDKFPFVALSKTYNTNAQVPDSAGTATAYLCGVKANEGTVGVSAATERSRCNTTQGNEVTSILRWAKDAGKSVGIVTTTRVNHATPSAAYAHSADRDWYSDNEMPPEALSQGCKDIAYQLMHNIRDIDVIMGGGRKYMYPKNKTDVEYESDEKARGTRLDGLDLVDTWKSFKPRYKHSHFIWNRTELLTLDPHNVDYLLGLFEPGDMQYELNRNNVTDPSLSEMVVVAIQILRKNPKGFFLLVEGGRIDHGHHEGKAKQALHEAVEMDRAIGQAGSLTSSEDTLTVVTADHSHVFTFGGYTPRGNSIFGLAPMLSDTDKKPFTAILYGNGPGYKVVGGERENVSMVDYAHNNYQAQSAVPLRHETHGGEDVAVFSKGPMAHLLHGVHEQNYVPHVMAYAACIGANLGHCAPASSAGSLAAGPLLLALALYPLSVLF

[7] = target: T3, Intestinal-type alkaline phosphatase; experiment: human intestinal alkaline phosphatase activators, dose response, biochemical, luminescence, uHTS hits (AID 463120); format: functional
[8] = target: Intestinal-type alkaline phosphatase (Mus musculus, UniProt P24822); experiment: PubChem AID 488874; format: functional
[9] = target: Coagulation factor XII (Homo sapiens, UniProt P00748); format: functional;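 also: activated factor XIIa alpha cleaving a fluorogenic AMC peptide substrate; inhibitor potency from loss of enzyme activity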
[10] = target: Perilipin-1/ABHD5 (Homo sapiens, UniProt O60240+Q8WTS1); experiment: Luminescence-based biochemical high throughput dose response assay for inhibitors of the interaction of the lipase co-activator protein, abhydrolase domain containing 5 (ABHD5) with perilipin-1 (PLIN1) (2K validation set). [Related pubchem assays (depositor defined):AID493027, AID493057]
[11] = target: 1-acylglycerol-3-phosphate O-acyltransferase ABHD5/Perilipin-5 (Homo sapiens, UniProt Q00G26+Q8WTS1); experiment: Luminescence-based biochemical high throughput dose response assay for inhibitors of the interaction of the lipase co-activator protein, abhydrolase domain containing 5 (ABHD5) with perilipin-5 (MLDP; PLIN5) (2K validation set). [Related pubchem assays (depositor defined):AID493035, AID493241]
[12] = target: SUMO-activating enzyme (Homo sapiens, UniProt Q9UBT2); experiment: blockers of UBC9-mediated SUMO conjugation – biochemical, AlphaScreen, SUMOylation inhibitor project, confirmation (AID 2018); format: functional
[13] = system: HEK293; experiment: cells; settings: Homo sapiens;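 also: cells exposed to compound for 14 hours overnight before viability readout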
[14] = target: Tumor necrosis factor (Homo sapiens, UniProt P01375); experiment: analog potency on TNFa NF-kB signaling – cell-based, revised, SAR follow-up (AID 2337); format: functional
[15] = target: T5, Carboxy-terminal domain RNA polymerase II polypeptide A small phosphatase 1 (Homo sapiens, UniProt Q9GZU7); experiment: CTDSP1 inhibitors, concentration-response, biochemical, absorbance readout, ultra-high-throughput screen actives (AID 540297); format: functional
T5 sequence (Q9GZU7 whole entry): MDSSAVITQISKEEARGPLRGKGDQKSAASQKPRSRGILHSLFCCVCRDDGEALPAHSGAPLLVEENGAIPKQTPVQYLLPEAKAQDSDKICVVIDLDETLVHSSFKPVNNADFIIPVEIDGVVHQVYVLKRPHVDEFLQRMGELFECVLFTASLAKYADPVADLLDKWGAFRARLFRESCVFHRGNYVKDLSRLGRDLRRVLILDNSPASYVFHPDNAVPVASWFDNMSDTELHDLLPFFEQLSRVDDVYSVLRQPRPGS

[16] = target: DNA dC->dU-editing enzyme APOBEC-3A (Homo sapiens, UniProt P31941); experiment: Dose Response confirmation of small molecule APOBEC3A DNA Deaminase Inhibitors via a fluorescence-based single-stranded DNA deaminase assay. [Related pubchem assays (depositor defined):AID493011, AID493024]; format: functional
[17] = target: DNA dC->dU-editing enzyme APOBEC-3G (Homo sapiens, UniProt Q9HC16); format: functional;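 also: Dose-response counterscreen measuring inhibition of APOBEC3G DNA deaminase activity, run while confirming APOBEC3A inhibitors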
[18] = Vero E6 cell cytotoxicity, dose response, cytotoxicity control for non-replicating M. tuberculosis project, secondary assay (AID 492998); format: functional, VeroE6; settings: Vero C1008
[19] = THP-1 cell cytotoxicity, dose response, cytotoxicity control for non-replicating M. tuberculosis project (AID 489025); format: functional
[20] = cells; format: functional
[21] = HepG2 cell cytotoxicity, dose response, cytotoxicity control for non-replicating M. tuberculosis project (AID 489018); format: functional; settings: Mycobacterium tuberculosis
[22] = target: T4, Alkaline phosphatase, tissue-nonspecific isozyme; experiment: potency against alkaline phosphatase TNAP – biochemical, luminescent, dose response, SAR follow-up (AID 1056)
[23] = target: T6, Mannose-6-phosphate isomerase (Homo sapiens, UniProt P34949); experiment: phosphomannose isomerase inhibition – biochemical, fluorescence intensity, confirmation (AID 1535)
T6 sequence (P34949 whole entry): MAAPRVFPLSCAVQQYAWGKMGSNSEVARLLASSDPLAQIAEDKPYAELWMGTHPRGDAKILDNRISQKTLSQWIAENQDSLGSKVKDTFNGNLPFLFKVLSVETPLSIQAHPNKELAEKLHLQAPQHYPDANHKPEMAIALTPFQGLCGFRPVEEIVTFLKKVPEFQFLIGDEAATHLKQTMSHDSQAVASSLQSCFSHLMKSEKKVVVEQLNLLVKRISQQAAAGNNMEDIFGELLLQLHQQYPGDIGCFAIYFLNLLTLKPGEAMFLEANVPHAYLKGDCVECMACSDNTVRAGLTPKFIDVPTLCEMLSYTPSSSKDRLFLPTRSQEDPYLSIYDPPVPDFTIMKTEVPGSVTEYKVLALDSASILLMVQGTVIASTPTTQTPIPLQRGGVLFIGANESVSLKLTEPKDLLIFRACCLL

[24] = target: Phosphoethanolamine/phosphocholine phosphatase (Homo sapiens, UniProt Q8TCT1); experiment: SAR assay for compounds that inhibit PHOSPHO1. [Related pubchem assays (depositor defined):AID1545, AID1565, AID1574]
[25] = target: T7, Phosphomannomutase 2 (Homo sapiens, UniProt O15305); experiment: Counter screen SAR assay for PMM2 inhibitors via a fluorescence intensity assay. [Related pubchem assays (depositor defined):AID1545, AID1574]
T7 sequence (O15305 whole entry): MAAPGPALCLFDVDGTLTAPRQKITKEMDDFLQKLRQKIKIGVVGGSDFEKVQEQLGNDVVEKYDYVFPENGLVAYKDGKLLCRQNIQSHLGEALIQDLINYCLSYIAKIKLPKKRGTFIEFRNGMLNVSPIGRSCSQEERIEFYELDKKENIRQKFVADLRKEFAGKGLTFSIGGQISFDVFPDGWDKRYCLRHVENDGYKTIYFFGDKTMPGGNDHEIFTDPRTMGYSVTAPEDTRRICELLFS

[26] = target: T8, Cytochrome P450 1A2 (Homo sapiens, UniProt P05177);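 also: PubChem cytochrome P450 panel assay, CYP1A2 panel member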
T8 sequence (P05177 whole entry): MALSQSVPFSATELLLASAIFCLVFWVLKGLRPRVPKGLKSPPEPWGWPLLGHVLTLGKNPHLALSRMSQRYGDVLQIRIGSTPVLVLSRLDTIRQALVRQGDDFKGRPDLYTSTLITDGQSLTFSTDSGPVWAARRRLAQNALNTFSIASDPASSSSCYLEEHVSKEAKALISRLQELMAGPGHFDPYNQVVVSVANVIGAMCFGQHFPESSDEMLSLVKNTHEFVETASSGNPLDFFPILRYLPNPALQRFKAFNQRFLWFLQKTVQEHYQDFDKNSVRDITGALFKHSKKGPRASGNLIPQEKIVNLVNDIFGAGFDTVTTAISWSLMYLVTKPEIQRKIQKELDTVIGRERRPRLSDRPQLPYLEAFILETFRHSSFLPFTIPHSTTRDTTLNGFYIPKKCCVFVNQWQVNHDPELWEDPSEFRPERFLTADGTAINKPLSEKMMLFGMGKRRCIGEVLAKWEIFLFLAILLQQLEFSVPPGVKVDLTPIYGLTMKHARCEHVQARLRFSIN

[27] = target: Cytochrome P450 3A4 (Homo sapiens, UniProt P08684);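 also: CYP3A4 tested as one member of a cytochrome P450 panel screen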
[28] = IC50 of Artemis nuclease activity blockers – biochemical, fluorescence intensity, dose response (AID 720701); format: functional;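 also: Artemis endonuclease enzyme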

DNA dC->dU-editing enzyme APOBEC-3G, sequence (Q9HC16 whole entry): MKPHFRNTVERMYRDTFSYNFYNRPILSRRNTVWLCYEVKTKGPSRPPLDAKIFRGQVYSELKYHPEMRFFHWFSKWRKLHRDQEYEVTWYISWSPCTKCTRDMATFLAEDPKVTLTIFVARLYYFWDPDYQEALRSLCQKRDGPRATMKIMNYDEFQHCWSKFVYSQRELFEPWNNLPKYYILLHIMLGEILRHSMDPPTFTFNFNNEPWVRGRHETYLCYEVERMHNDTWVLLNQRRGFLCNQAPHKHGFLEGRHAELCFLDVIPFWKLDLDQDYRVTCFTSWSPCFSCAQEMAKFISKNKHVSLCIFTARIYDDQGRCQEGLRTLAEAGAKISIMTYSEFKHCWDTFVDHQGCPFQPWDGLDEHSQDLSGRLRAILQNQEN
T3 sequence (P09923 whole entry): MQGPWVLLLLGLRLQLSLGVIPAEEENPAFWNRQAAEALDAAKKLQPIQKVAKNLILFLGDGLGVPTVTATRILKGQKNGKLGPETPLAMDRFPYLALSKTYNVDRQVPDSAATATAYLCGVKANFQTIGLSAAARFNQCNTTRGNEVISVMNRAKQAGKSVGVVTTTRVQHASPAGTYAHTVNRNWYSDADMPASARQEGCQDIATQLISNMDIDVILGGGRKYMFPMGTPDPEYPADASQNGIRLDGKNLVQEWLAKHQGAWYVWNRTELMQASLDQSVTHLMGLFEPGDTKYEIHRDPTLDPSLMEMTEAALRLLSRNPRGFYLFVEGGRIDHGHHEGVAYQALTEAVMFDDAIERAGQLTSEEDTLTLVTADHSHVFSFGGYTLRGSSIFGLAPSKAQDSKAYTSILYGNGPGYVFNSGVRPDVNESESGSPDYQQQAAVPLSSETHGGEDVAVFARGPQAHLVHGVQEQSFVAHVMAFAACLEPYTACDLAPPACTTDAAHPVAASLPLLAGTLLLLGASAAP
Coagulation factor XII, sequence (P00748 20-372 limits assumed): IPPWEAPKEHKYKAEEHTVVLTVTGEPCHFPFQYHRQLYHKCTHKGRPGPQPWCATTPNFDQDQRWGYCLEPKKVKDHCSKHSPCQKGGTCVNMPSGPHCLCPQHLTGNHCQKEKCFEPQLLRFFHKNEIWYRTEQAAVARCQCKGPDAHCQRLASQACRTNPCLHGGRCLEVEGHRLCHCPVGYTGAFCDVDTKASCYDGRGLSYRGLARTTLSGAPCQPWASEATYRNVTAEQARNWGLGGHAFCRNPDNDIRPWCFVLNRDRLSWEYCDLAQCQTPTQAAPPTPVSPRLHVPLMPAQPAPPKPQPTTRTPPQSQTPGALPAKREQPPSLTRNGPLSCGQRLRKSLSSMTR
Coagulation factor XII, sequence (P00748 373-615 limits assumed): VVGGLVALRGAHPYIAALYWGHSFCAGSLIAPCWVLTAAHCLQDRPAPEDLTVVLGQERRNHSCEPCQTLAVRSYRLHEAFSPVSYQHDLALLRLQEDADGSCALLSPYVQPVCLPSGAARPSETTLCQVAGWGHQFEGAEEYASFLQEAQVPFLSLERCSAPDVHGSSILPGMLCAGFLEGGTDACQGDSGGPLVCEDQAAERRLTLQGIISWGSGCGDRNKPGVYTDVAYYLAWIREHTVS
Perilipin-1/ABHD5, sequence (Q8WTS1 whole entry, the tested form may be a part): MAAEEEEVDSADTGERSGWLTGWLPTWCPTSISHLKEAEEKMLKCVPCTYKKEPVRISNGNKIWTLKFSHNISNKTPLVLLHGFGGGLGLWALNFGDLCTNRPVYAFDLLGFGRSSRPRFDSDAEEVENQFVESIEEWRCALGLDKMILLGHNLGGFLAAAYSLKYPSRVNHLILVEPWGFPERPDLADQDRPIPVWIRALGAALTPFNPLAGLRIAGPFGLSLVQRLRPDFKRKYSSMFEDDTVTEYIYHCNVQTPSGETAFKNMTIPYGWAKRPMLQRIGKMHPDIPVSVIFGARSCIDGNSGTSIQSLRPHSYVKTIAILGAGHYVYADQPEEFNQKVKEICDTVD
Perilipin-1/ABHD5, sequence (O60240 whole entry, the tested form may be a part): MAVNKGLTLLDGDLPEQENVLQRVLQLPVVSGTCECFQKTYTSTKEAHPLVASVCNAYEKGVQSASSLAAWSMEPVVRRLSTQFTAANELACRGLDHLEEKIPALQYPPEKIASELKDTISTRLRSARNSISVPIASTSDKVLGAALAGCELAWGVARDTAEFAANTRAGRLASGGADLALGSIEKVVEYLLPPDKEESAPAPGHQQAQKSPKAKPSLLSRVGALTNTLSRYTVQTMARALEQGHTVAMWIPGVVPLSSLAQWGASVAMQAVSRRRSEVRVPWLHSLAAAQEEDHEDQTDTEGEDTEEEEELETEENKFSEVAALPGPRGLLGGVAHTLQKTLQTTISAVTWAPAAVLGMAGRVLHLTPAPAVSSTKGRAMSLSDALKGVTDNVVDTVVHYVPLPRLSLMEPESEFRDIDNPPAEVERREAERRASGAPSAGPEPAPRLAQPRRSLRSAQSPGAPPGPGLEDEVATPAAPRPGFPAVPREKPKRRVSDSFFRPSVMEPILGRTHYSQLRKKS
1-acylglycerol-3-phosphate O-acyltransferase ABHD5/Perilipin-5, sequence (Q00G26 whole entry, the tested form may be a part): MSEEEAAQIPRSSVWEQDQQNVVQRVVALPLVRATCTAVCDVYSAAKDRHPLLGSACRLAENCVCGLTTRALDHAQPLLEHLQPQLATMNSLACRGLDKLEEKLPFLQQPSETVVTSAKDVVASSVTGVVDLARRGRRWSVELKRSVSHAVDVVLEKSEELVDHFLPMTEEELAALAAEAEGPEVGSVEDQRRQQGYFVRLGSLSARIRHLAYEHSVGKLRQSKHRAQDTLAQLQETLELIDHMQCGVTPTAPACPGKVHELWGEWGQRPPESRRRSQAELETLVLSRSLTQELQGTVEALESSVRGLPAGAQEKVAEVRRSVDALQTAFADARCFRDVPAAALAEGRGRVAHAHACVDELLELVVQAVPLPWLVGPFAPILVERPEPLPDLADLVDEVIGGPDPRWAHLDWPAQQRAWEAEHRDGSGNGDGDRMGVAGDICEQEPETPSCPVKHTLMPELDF
1-acylglycerol-3-phosphate O-acyltransferase ABHD5/Perilipin-5, sequence (Q8WTS1 whole entry, the tested form may be a part): as the sequence (Q8WTS1 whole entry, the tested form may be a part) above
T1 sequence (P65502 whole entry): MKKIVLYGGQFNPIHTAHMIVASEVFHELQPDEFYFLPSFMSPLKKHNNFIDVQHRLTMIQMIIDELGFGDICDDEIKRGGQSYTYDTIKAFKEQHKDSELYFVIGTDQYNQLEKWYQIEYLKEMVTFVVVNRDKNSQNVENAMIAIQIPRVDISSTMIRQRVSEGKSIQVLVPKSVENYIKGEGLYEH
DNA dC->dU-editing enzyme APOBEC-3A, sequence (P31941 whole entry): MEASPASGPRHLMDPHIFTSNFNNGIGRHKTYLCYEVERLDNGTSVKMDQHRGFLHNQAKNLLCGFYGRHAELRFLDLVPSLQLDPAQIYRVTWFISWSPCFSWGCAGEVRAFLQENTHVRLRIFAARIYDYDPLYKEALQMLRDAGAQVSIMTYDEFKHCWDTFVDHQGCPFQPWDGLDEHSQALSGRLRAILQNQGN
SUMO-activating enzyme, sequence (Q9UBE0 whole entry): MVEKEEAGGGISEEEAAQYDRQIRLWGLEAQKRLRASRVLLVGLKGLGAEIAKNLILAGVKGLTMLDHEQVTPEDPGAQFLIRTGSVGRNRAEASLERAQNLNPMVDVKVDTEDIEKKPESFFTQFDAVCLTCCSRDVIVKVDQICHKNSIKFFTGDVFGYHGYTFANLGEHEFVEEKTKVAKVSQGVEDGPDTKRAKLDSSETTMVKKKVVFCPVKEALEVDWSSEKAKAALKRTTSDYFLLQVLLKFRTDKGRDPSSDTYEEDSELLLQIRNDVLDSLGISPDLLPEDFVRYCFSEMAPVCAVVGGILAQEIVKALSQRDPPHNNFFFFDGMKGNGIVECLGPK
SUMO-activating enzyme, sequence (Q9UBT2 whole entry): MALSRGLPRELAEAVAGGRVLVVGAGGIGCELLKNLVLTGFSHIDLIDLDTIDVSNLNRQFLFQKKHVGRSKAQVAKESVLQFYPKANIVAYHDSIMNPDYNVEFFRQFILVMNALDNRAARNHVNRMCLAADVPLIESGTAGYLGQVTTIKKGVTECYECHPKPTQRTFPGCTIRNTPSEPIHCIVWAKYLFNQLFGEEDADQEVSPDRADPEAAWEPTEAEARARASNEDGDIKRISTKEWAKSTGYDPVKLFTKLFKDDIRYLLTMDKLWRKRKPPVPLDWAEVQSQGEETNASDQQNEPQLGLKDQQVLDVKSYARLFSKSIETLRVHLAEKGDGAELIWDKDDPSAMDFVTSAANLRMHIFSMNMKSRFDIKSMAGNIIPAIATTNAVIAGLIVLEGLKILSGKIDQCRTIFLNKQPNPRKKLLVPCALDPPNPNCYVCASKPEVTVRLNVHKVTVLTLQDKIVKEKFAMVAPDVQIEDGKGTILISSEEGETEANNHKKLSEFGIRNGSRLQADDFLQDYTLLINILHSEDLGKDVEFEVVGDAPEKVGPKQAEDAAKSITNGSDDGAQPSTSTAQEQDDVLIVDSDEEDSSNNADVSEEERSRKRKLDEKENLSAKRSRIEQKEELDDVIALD
Cytochrome P450 3A4, sequence (P08684 whole entry): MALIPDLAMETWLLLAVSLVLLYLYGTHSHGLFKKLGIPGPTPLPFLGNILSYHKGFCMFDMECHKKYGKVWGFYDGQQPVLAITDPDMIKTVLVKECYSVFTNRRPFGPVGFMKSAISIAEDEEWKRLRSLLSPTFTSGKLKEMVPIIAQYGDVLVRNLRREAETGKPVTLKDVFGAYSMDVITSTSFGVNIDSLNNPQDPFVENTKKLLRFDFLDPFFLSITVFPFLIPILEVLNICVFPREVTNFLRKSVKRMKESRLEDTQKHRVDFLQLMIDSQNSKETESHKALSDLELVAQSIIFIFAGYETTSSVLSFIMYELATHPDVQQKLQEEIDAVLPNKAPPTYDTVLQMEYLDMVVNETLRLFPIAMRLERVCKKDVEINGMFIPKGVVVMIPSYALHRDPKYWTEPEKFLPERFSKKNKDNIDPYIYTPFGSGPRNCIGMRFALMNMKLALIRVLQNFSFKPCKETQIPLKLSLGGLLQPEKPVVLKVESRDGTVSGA

COc1ccc(C(=O)NNC(=S)NC(=O)c2cc(-c3ccccc3)nc3ccccc23)cc1
IC50 [1]: 7.14 µM (active) | IC50 [2]: 26.4 µM (active) | EC50 [3]: > 29.9 µM (inactive) | EC50 [4]: > 29.9 µM (not active)

Cc1ccc(S(=O)(=O)NCCC(=O)NNC(=O)COc2ccc(Br)cc2)cc1C
EC50 [5]: 16 µM (active) | EC50 [6]: 16.4 µM (active) | EC50 [7]: 11.5 µM (active) | IC50 [8]: 89.4 µM (active)

CNS(=O)(=O)c1cc(C(=O)O)ccc1OC
IC50 [9]: > 50 µM (inactive)

N#C/C(=C/c1ccccc1)C(=O)NCc1ccccc1
IC50 [10]: 13.1 µM (inactive) | IC50 [11]: 17.2 µM (inactive)

CCOc1ccc(-n2c(SCC(=O)Nc3ccc(CC)cc3)nc3nnc(C)c-3c2N)cc1
IC50 [12]: 36.9 µM (active)

Cc1ccc(C2=NOC(=O)/C2=C\C=C\c2ccccc2)cc1
IC50 [10]: 1.23 µM (active) | IC50 [11]: 1.12 µM (active)

CC(=O)c1ccc(N2CCN(S(=O)(=O)c3ccc4c(c3)CCN4C(C)=O)CC2)cc1
IC50 [13]: > 20 µM (inactive) | IC50 [14]: 13.2 µM (active)

C=CC#CC1(O)CC(C)[N+](C)(C)CC1C (stereo not drawn)
IC50 [15]: 7.57 µM (active) | IC50 [16]: 1.97 µM (active) | IC50 [17]: 5.58 µM (active)

O=C(NC(=S)N1CCc2ccccc21)c1ccccc1
CC50 [18]: > 20 µM (active) | CC50 [19]: > 40 µM (active) | IC50 [20]: 9.86 µM (active) | CC50 [21]: > 20 µM (active)

Cc1ccc(C)c(-n2sc3cc(F)ccc3c2=O)c1
IC50 [22]: > 100 µM (inactive) | IC50 [23]: 0.985 µM (active) | IC50 [24]: 4.1 µM (inactive) | IC50 [25]: 9.95 µM (active) and 4.57 µM (active)

CCN1C(NCc2cc(OC)c(OC)c(OC)c2)=N[C@@H](c2ccccc2)C(C(=O)OC)=C1C
IC50 [16]: 4.15 µM (active) | IC50 [17]: 3.54 µM (active)

CC(C)=CCC/C(C)=C/CC/C(C)=N/O
IC50 [9]: > 50 µM (inactive)

CCN1CCc2nc(NC(=O)CC(c3ccccc3)c3ccccc3)sc2C1
AC50 [26]: 15.8 µM (inconclusive) | AC50 [27]: inconclusive | IC50 [28]: 9.25 µM (active)
